Data on eleven compounds can be found in the supplement of paper PMC10326909.

The series in a line: ESI positive response factor (isotope-corrected peak area per molar concentration) in SFC/ESI/HRMS (area units per M); higher = higher ionization efficiency.

Molecules are shown by their SMILES.
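Further: standards in acetonitrile/water run in triplicate on a zwitterionic HILIC column, CO2–methanol gradient containing 20 mmol/L ammonium acetate, postcolumn makeup flow, Orbitrap full-scan detection.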

Consider `CC(CCl)OP(=O)(OC(C)CCl)OC(C)CCl` (stereo not given) [TCPP], for which the “ESI positive response factor” value (0.0175 µM) amounted to 1.59e+18; the “ESI positive response factor” value (0.035 µM) came out at 1.21e+18; the “ESI positive response factor” value (0.0875 µM) is 1.02e+18; the “ESI positive response factor” value (0.175 µM) was 8.34e+17; the “ESI positive response factor” value (0.35 µM) amounted to 7.91e+17.
For the compound `O=P(OC(CCl)CCl)(OC(CCl)CCl)OC(CCl)CCl` [TDCPP], the “ESI positive response factor” value reads like this: (0.0175 µM) 4.09e+17; (0.035 µM) 4.02e+17; (0.0875 µM) 3.57e+17.
Consider `C[C@]12CC[C@H]3[C@@H](CCC4=CC(=O)CC[C@@]43C)[C@@H]1CC[C@@H]2O` [Testosteron], for which the “ESI positive response factor” value reads like this: (0.0175 µM) 2.27e+17; (0.035 µM) 2.44e+17; (0.0875 µM) 2.22e+17.
On to `NCC1CCC(C(=O)O)CC1` (stereo not given) [Tranexamic acid], for which the “ESI positive response factor” value by setting is: (0.035 µM) 9.61e+16; (0.0875 µM) 6.97e+16; (0.175 µM) 5.79e+16; (0.35 µM) 6.32e+16; (0.875 µM) 6.01e+16.
For `OCCN(CCO)CCO` [Triethanolamine], the “ESI positive response factor” value (0.0175 µM) came out at 8.84e+16; the “ESI positive response factor” value (0.035 µM) was 8.88e+16; the “ESI positive response factor” value (0.0875 µM) was 8.78e+16; the “ESI positive response factor” value (0.175 µM) is 8.76e+16; the “ESI positive response factor” value (0.35 µM) came to 8.66e+16.
For `COCCOCCOCCO` [Triethylene glycol monomethyl ether], the “ESI positive response factor” value (0.0175 µM) is 8.19e+16, the “ESI positive response factor” value (0.035 µM) was 9.98e+16, the “ESI positive response factor” value (0.0875 µM) is 8.29e+16 and the “ESI positive response factor” value (0.175 µM) was 7.97e+16.
Turning to `COc1cc(Cc2cnc(N)nc2N)cc(OC)c1OC` [Trimethoprim], the “ESI positive response factor” value (0.0175 µM) turned out to be 2.88e+17; the “ESI positive response factor” value (0.035 µM) turned out to be 3.52e+17; the “ESI positive response factor” value (0.0875 µM) was 3.58e+17; the “ESI positive response factor” value (0.175 µM) is 3.13e+17; the “ESI positive response factor” value (0.35 µM) turned out to be 3.46e+17; the “ESI positive response factor” value (0.875 µM) was determined as 3.33e+17.
Consider `O=P(OCCCl)(OCCCl)OCCCl` [Tris(2-chloroethyl) phosphate], for which the “ESI positive response factor” value came out at 2.68e+18 (0.0175 µM), 2.89e+18 (0.035 µM) and 2.72e+18 (0.0875 µM).
On to `CCCCC(=O)N(Cc1ccc(-c2ccccc2-c2nn[nH]n2)cc1)C(C(=O)O)C(C)C` (stereo not given) [Valsartan], for which the “ESI positive response factor” value worked out at 2.86e+16 (0.0175 µM); 5.36e+16 (0.035 µM); 5.55e+16 (0.0875 µM); 5.75e+16 (0.175 µM); 6.09e+16 (0.35 µM); 6.04e+16 (0.875 µM). For the setting “1.75 µM”, the “ESI positive response factor” value amounted to 5.94e+16.
Turning to `C=CC(=O)OCC[N+](C)(C)C` [[2-(Acryloyloxy)ethyl]trimethylammonium], the “ESI positive response factor” value runs as follows: (0.035 µM) 8.46e+16; (0.0875 µM) 6.97e+16; (0.175 µM) 5.79e+16; (0.35 µM) 6.32e+16; (0.875 µM) 6.01e+16.
With `CC(O)CN(CC(C)O)CC(C)O` (stereo not given) [triisopropanolamine], the “ESI positive response factor” value is, setting by setting: (0.035 µM) 1.75e+17; (0.0875 µM) 2.93e+17; (0.175 µM) 3.36e+17; (0.35 µM) 3.51e+17.
